# Reference: patent EP4678638A1, “NEW E3 UBIQUITIN LIGASE LIGAND, PROTEIN DEGRADATION AGENT AND USE THEREOF” (priority 2023, dated 2024)
# Where two headings read alike, the source gives them in different places.
# How the values were obtained:
# IRAK4 = molecular target: T1, IRAK4 (Homo sapiens, UniProt Q9NWZ3); test: Western blot degradation of IRAK4 (hPBMC); assay type: cell-based; conditions: Table D1
# T1 construct: evaluate the effects of the compounds of the present disclosure on the expression of target proteins in cells; endogenous in cells; host or cells: hPBMC
# T1 sequence (Q9NWZ3 1-460): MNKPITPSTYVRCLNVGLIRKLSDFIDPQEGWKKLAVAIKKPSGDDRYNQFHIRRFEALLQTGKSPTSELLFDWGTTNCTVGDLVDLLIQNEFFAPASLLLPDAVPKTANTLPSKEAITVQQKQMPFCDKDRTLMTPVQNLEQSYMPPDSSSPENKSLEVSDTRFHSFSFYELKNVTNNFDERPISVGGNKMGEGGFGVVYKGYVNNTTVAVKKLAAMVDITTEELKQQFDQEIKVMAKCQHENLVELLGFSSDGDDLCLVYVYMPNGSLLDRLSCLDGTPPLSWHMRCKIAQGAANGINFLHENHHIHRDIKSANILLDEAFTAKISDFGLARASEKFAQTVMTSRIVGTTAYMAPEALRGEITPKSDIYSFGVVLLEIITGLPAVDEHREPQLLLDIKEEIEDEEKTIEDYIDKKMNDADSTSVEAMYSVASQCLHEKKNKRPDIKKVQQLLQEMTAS
# Method in brief: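 Quantification by ImageJ densitometry of Western blot bands: DC50 is the fitted concentration halving band intensity relative to DMSO. Percent remaining uses internal-control normalization, and degradation rate is its complement.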
# Jurkat = test: CCK-8 proliferation, Jurkat; assay type: cell-based, Human; conditions: Table B10, compounds designed based on the IRAK4 inhibitors, Jurkat cells, read-out: Inhibitory activity (IC50, nM) on tumor cell proliferation, Jurkat
# Method in brief: (§1)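 Cells seeded, then after 24 h treated with 10 concentrations (top 10 µM, 5-fold serial dilution) for a line-specific time at 37°C, 5% CO2. Viability read by CCK-8; IC50 fitted from growth-inhibition curves.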
# SR = test: CCK-8 proliferation, SR; assay type: cell-based, Human; conditions: Table B10, compounds designed based on the IRAK4 inhibitors, SR cells, read-out: Inhibitory activity (IC50, nM) on tumor cell proliferation, SR
# Method in brief: as §1
# H1299 = test: CCK-8 proliferation, H1299; design: species or system Human; conditions: Table B10, compounds designed based on the IRAK4 inhibitors, H1299 cells, read-out: Inhibitory activity (IC50, nM) on tumor cell proliferation, H1299
# Procedure: (§2) The tumor cells used herein were cultured in a cell culture medium listed in table A1 at 37°C in an incubator with 5% CO2. Prior to experimentation, all cell lines used were correctly identified by STR profiling, and tested negative for mycoplasma contamination using a mycoplasma detection kit through routine screenings. Table A1. Tumor cells and cell culture medium used in the present disclosure
# (§3) IC50 values of the compounds of the present disclosure (including the compounds in Table 1, and compounds of examples) were measured using the Meilun Cell Counting Kit-8 kit from Dalian Meilun Biotech Co., Ltd. Assay details are as follows: tumor cells were seeded in a 96-well plate at a density listed in Table A2. After 24h, 100 µL of the inoculated cells were treated with 0.5µL of the compounds of the present disclosure (including the compounds in Tables 1 and 2, and compounds of examples) at 10 different successively decreasing concentrations (starting at the highest concentration of 10µM; 5-fold serial dilutions). After the cells were treated with the compounds of the present disclosure for a period of time, the cell viability detection reagent was added to the culture medium for cell viability assessment according to the instructions provided with the CCK-8 kit. […] The growth inhibition of the compounds of the present disclosure on cells was plotted by Prism Graphpad software, and the IC50 values of the compounds of the present disclosure were calculated therefrom. […] Seeding protocol and treatment time for tumor cells
# MM.1S = test: CCK-8 proliferation, MM.1S; assay type: cell-based; conditions: Table B10, compounds designed based on the IRAK4 inhibitors, MM.1S cells, read-out: Inhibitory activity (IC50, nM) on tumor cell proliferation, MM.1S
# Method in brief: as §1
# MGC-803 = test: CCK-8 proliferation, MGC-803 (heads: MGC80-3, MGC803); assay type: cell-based, Human; conditions: Table B10, compounds designed based on the IRAK4 inhibitors, MGC803 cells, read-out: Inhibitory activity (IC50, nM) on tumor cell proliferation, MGC803
# Procedure: as §2, §3
# DU-145 = test: CCK-8 proliferation, DU-145; assay type: cell-based; conditions: Homo sapiens, 96 hours, read-out: Inhibitory activity (IC50) on tumor cell proliferation, DU-145
# Procedure: as §2, §3
# LNcap = test: CCK-8 proliferation, LNcap; assay type: cell-based; conditions: Homo sapiens; Table B10, compounds designed based on the IRAK4 inhibitors; Lncap cells; read-out: Inhibitory activity (IC50, nM) on tumor cell proliferation, Lncap
# Procedure: as §2, §3
IC50 (DU-145),IC50 (LNcap),IC50 (Jurkat),IC50 (H1299),IC50 (MM.1S),IC50 (MGC-803),SMILES,Degradation of substrate protein IRAK4 (substrate protein remaining %) (IRAK4),IC50 (Jurkat; Homo sapiens),IC50 (SR; Homo sapiens),"IC50 (H1299; Homo sapiens, NCI-H1299)","IC50 (MM.1S; Homo sapiens, MM1.S)","IC50 (MGC-803; Homo sapiens, MGC-803)",IC50 (SR)
,,,,,,"O=C1CCC(Nc2cccc(CN3CCN(c4ccc(-n5cc(NC(=O)c6coc(-c7ccnc(NCC8CC8)c7)n6)c(C(F)F)n5)cc4)CC3)c2)C(=O)N1 (centres unmarked) [GT-04969, 2-(2-((cyclopropylmethyl)amino)pyridin-4-yl)-N-(3-(difluoromethyl)-1-(4-(4-(3-((2,6-dioxopiperidin-3-yl)amino)benzyl)piperazin-1-yl)phenyl)-1H-pyrazol-4-yl)oxazole-4-carboxamide]",A (A is defined as 0% ≤ substrate protein remaining % ≤ 80%),100 to 500 nM,100 to 500 nM,100 to 500 nM,100 to 500 nM,100 to 500 nM,
,,,,,,"O=C1CCN(c2ccc(CN3CCC(n4cc(NC(=O)c5coc(-c6ccnc(NCC7CC7)c6)n5)c(C(F)F)n4)CC3)cn2)C(=O)N1 [GT-04959, 2-(2-((cyclopropylmethyl)amino)pyridin-4-yl)-N-(3-(difluoromethyl)-1-(1-((6-(2,4-dioxotetrahydropyrimidin-1(2H)-yl)pyridin-3-yl)methyl)piperidin-4-yl)-1H-pyrazol-4-yl)oxazole-4-carboxamide]",,,,500 to 1000 nM,500 to 1000 nM,,
,,,,,,"O=C1CCN(c2ccc(CN3CCN(c4ccc(-n5cc(NC(=O)c6coc(-c7ccnc(NCC8CC8)c7)n6)c(C(F)F)n5)cc4)CC3)cn2)C(=O)N1 [GT-04970, 2-(2-((cyclopropylmethyl)amino)pyridin-4-yl)-N-(3-(difluoromethyl)-1-(4-(4-((6-(2,4-dioxotetrahydropyrimidin-1(2H)-yl)pyridin-3-yl)methyl)piperazin-1-yl)phenyl)-1H-pyrazol-4-yl)oxazole-4-carboxamide]",A (A is defined as 0% ≤ substrate protein remaining % ≤ 80%),100 to 500 nM,50 to 100 nM,100 to 500 nM,50 to 100 nM,50 to 100 nM,
,,,,,,"O=C1CCN(c2ccc(CN3CCN(c4ccc5c(c4)nc(NC(=O)c4cccc(C(F)(F)F)c4)n5[C@H]4CC[C@@H](CO)CC4)CC3)cc2)C(=O)N1 [GT-04982, N-(5-(4-(4-(2,4-dioxotetrahydropyrimidin-1(2H)-yl)benzyl)piperazin-1-yl)-1-((1s,4s)-4-(hydroxymethyl)cyclohexyl) -1H-benzo[d]imidazol-2-yl)-3-(trifluoromethyl)benzamide]",A (A is defined as 0% ≤ substrate protein remaining % ≤ 80%),100 to 500 nM,100 to 500 nM,100 to 500 nM,50 to 100 nM,100 to 500 nM,
,,,,,,"O=C1CCN(c2cccc(CN3CCN(c4ccc(-n5cc(NC(=O)c6coc(-c7ccnc(NCC8CC8)c7)n6)c(C(F)F)n5)cc4)CC3)c2)C(=O)N1 [GT-04968, 2-(2-((cyclopropylmethyl)amino)pyridin-4-yl)-N-(3-(difluoromethyl)-1-(4-(4-(3-(2,4-dioxotetrahydropyrimidin-1(2H)-yl)benzyl)piperazin-1-yl)phenyl)-1H-pyrazol-4-yl)oxazole-4-carboxamide]",A (A is defined as 0% ≤ substrate protein remaining % ≤ 80%),100 to 500 nM,100 to 500 nM,100 to 500 nM,10 to 50 nM,100 to 500 nM,
,,,,,,"O=C1CCC(c2ccc(CN3CCN(c4ccc5c(c4)nc(NC(=O)c4cccc(C(F)(F)F)c4)n5C4CCC(CO)CC4)CC3)cc2)C(=O)N1 (centres unmarked) [GT-04981, N-(5-(4-(4-(2,6-dioxopiperidin-3-yl)benzyl)piperazin-1-yl)-1-((1s,4s)-4-(hydroxymethyl)cyclohexyl) -1H-benzo[d]imidazol-2-yl)-3-(trifluoromethyl)benzamide]",A (A is defined as 0% ≤ substrate protein remaining % ≤ 80%),500 to 1000 nM,100 to 500 nM,500 to 1000 nM,100 to 500 nM,500 to 1000 nM,
,,,,,,"O=C1CCN(c2ccc(CN3CCN(c4ccc5c(c4)nc(NC(=O)c4cccc(C(F)(F)F)c4)n5[C@H]4CC[C@@H](CO)CC4)CC3)nc2)C(=O)N1 [GT-04986, N-(5-(4-((5-(2,4-dioxotetrahydropyrimidin-1(2H)-yl)pyridin-2-yl)methyl)piperazin-1-yl)-1-((1s,4s)-4-(hydroxymethyl)cyclohexyl) -1H-benzo[d]imidazol-2-yl)-3-(trifluoromethyl)benzamide]",A (A is defined as 0% ≤ substrate protein remaining % ≤ 80%),100 to 500 nM,100 to 500 nM,100 to 500 nM,100 to 500 nM,100 to 500 nM,
100 to 500 nM,,,,,,"O=C1CCN(c2cccc(COc3ccc(Cl)cc3-c3nc4cc(C(F)(F)F)cc(Cl)c4[nH]3)c2)C(=O)N1 [GT-06480, 1-(3-((4-chloro-2-(7-chloro-5-(trifluoromethyl)-1H-benzo[d]imidazol-2-yl)phenoxy)methyl)phenyl)dihydropyrimidine-2,4(1H,3H)-dione]",,,,,,,
,100 to 500 nM,,,,,"O=C1CCC(c2ccc(CN3CCN(c4ccc(-n5cc(NC(=O)c6coc(-c7ccnc(NCC(F)(F)F)c7)n6)c(C(F)F)n5)cc4)CC3)cc2)C(=O)N1 (centres unmarked) [GT-04273, N-(3-(difluoromethyl)-1-(4-(4-(4-(2,6-dioxopiperidin-3-yl)benzyl)piperazin-1-yl)phenyl)-1H-pyrazol-4-yl)-2-(2-((2,2,2-trifluoroethyl)amino)pyridin-4-yl)oxazole-4-carboxamide]",,1 to 10 nM,50 to 100 nM,50 to 100 nM,1 to 10 nM,10 to 50 nM,
,,100 to 500 nM,100 to 500 nM,100 to 500 nM,100 to 500 nM,"O=C1CCN(c2ccc(CN3CCN(c4ccc5c(c4)nc(NC(=O)c4cccc(C(F)(F)F)c4)n5[C@H]4CC[C@@H](CO)CC4)CC3)cn2)C(=O)N1 [GT-04987, N-(5-(4-((6-(2,4-dioxotetrahydropyrimidin-1(2H)-yl)pyridin-3-yl)methyl)piperazin-1-yl)-1-((1s,4s)-4-(hydroxymethyl)cyclohexyl) -1H-benzo[d]imidazol-2-yl)-3-(trifluoromethyl)benzamide]",,,,,,,100 to 500 nM
